In publication PMC5855688, “BC-Box Motif-Mediated Neuronal Differentiation of Somatic Stem Cells” (International Journal of Molecular Sciences, 2018):

Assays:
elongin BC = molecular target: T1, elongin BC (Homo sapiens, UniProt Q15369+Q15370); assay: Isothermal titration calorimetry (ITC); assay type: binding
T1 construct: made in house; host or cells: E. coli BL21 (DE3), pCDFDuet-1
Procedure: In order to determine the crucial peptide sequence for elongin BC binding by isothemal titration caloritetry (ITC), recombinant proteins of elongin B and elongin C were prepared as follows. […] For purification, cell pellets were lysed by sonication in buffer A (20 mM Tris-HCl, pH 8.0, 0.5 M NaCl, 10 mM imidazole), and the soluble fraction was loaded onto Ni-NTA resin (Qiagen, Venlo, Netherlands) and eluted with buffer B (20 mM Tris-HCl (pH 8.0), 0.5 M NaCl, 250 mM imidazole). Eluted proteins were then loaded onto a Mono Q column followed by a Superdex 75 10/300 GL column (GE Healthcare, Chicago, IL, USA). For the ITC experiments, the elongin BC solution was exchanged with buffer C (20 mM HEPES-NaOH (pH 8.0), 150 mM NaCl) by using size-exclusion chromatography. Assays to assess the binding of peptides to elongin BC were performed by using a MicroCal iTC200 isothermal titration calorimeter (GE Healthcare, Chicago, IL, USA). […] The concentration of elongin BC was adjusted to a final one of 35 μM and injected into the sample cell (204 μL). One mM peptide was titrated into the protein solution as 40 consecutive 1.0-μL aliquots at 120-s intervals at 25 °C. The first injection volume was 0.4 μL, and the observed thermal peak was excluded from the data analyses. Duplicate experiments were performed independently. […] The KD values were calculated from duplicate thermograms.

[1] = system: skin-derived precursors (SKPs); assay: Neurite outgrowth / morphological evaluation of neuronal differentiation; assay type: cell-based, rat (neonate Wistar); conditions: peptides at 1 to 5 μM; for Neurite Outgrowth Activity: Figure 2A, rates of cells having neurites, VHL157–168 vs VHL(157–171) p < 0.005
Procedure: (§1) Rodent skin-derived precursor cells (SKPs), which can differentiate to neurons, were used. SKPs were previously isolated from the back dermis of neonate Wistar rats by the authors. These cells were cultured in growth medium composed of DMEM/F12 (1:1; Gibco, Grand Island, NY, USA) containing 2% B27 supplement (Gibco), 20 ng/mL epidermal growth factor (EGF; Upstate Biotechnology, Lake Placid, NY, USA), and 40 ng/mL bFGF (PeproTech EC Ltd., Rocky Hill, NJ, USA) in a humidified incubator at 37 °C with 5% CO2. The floating clusters of cultured cells were centrifuged and dissociated into a single-cell suspension by use of a Pasteur pipette with a flame-polished tip. These single cells were then re-suspended into at a concentration of 50,000 cells/mL for passage or experiments.
(§2) For neuronal differentiation, cells were dissociated into a single-cell suspension by use of a Pasteur pipette and re-suspended into a concentration of 50,000 cells/mL in DMEM/F12 without serum, neurotrophic factors or growth factors. Then, the cells were cultured on poly-L-lysine-coated dishes or cover glasses, and the synthesized peptides at concentrations from 1 to 5 μM were added to the culture medium and delivered into the cells. Three days or more later, the cells were used for morphological, immunocytochemical, immunohistochemical, electrophysiological and immunoprecipitation studies, as well as for Western blot analysis.
Neurite outgrowth with length exceeding the diameter of the neuronal soma is often assessed as a morphological index of neuronal differentiation. After a single-cell suspension was made by pipetting, the cells were cultured in DMEN/F12 medium alone at 37 °C in a 5% CO2 incubator. Thereafter, neurite outgrowth was evaluated with the following 4 levels: +++, for above 50% of the cells showing neurite outgrowth; ++, for 20–50% with neurite outgrowth; +, for 5–19% having neurite outgrowth; and −, for below 5% of the cells with neurite outgrowth.

[2] = system: skin-derived precursors (SKPs); assay: Immunocytochemistry with anti-Neurofilament-H (NFH) antibody; assay type: cell-based, rat (neonate Wistar); conditions: immunocytochemistry, peptides at 1 to 5 μM; mean ± SEM; vs VHL(157–171): p < 0.01 for VHL(157–168), p < 0.005 for TAT
Procedure: as §1, §2
Cultured cells were fixed with 4% paraformaldehyde in PBS (Phosphate buffered saline) for 10 min at room temperature. Cells were incubated for 1 h at room temperature with primary antibodies. Antibodies against anti-MAP2 antibody (Sigma-Aldrich, St. Louis, MO, USA), anti-Neurofilment-H (NFH) antibody (Sigma-Aldrich), anti-NeuN antibody (Merk Millipore, Billerica, MA, USA), anti-GFAP antibody (DAKO, Santa Clara, CA, USA), anti-tyrosine hydroxylase (TH) antibody (Merk Millipore, Billerica, MA, USA), anti-choline acetyl transferase (ChAT) antibody (Abbiotec, San Diego, CA, USA), anti-glutamic acid decaboxylase (GAD) antibody (Enzo Life Sciences, Flamingdale, NY, USA), and anti-rhodopsin antibody (Santa Cruz, San Diego, CA, USA) were used. […] Nuclear counterstaining was done with DAPI (Molecular Probes, Eugene, OR, USA) or TO-PRO-3 (Molecular Probes), and observations were made with a fluorescence microscope system (FV300, Olympus, Tokyo, Japan). We counted the number of immuno-positive cells with a given antibody in 4 to 6 random non-overlapping visual fields (50–200 cells per field) in each experiment. […] The degree of positivity was expressed as the rate of immuno-positive cells to the total number of nuclei stained with DAP1 or TO-PRO-3.

[3] = system: skin-derived precursors (SKPs); assay: Western blot analysis of NFH protein; assay type: cell-based, rat (neonate Wistar); conditions: three days after treatment, Figure 3B, peptides at 1 to 5 μM, less than VHL(157–171): VHL(157–168) p < 0.01, TAT p < 0.001
Procedure: as §1, §2
Cultured cells were washed 3 times in cold PBS and then scraped into ice-cold PBS. After incubation on ice for 10 min, the cells were lysed with lysis buffer and centrifuged, after which the supernatants were collected. Each sample was separated by SDS-PAGE under reducing conditions and transferred electrophoretically to nitrocellulose filters. Non-specific binding of antibody was blocked by incubation with 5% donkey serum for 1 h. Western blots were probed with anti-MAP2 antibody, anti-NFH antibody, anti-ChAT antibody, anti-GAD antibody, anti-rhodopsin antibody, anti-TH antibody, and anti-elongin C antibody (Santa Cruz, San Diego, CA, USA) followed by horseradish peroxidase-conjugated secondary antibodies. Protein bands were detected by using a chemical luminescence detection system (ECL Plus Western Blotting Reagent Pack, Amersham, Hemel Hempstead, UK). Images were analyzed with LAS-1000 (Fujifilm, Tokyo, Japan), and the density of the bands was determined by using Image Gauge software (Fujifilm).

rat brain = assay: Immunohistochemistry (NeuN) of transplanted peptide-treated cells in rat brain; assay type: in vivo, rat (Wistar); conditions: 1 × 10^5 peptide-treated cells transplanted into rat brain, 6 weeks; mean ± SEM; vs VHL(157–171): p < 0.01 for VHL(157–168), p < 0.005 for TAT
Procedure: To evaluate neuronal differentiation of transplanted cells in rat brains, immunohistochemical study was performed as described previously. Before grafting, cells were preincubated with red fluorescence PKH26PCL (Sigma, St. Louis, MO, USA). […] Rats were anesthetized with isoflurane before surgery, and 1 × 10^5 cells were transplanted into rat brain. The rats were perfused with periodate-lysine-paraformaldehyde solution 6 weeks after the transplantation. Their brains were subsequently dissected and postfixed in the same medium for 2 h, cryopreserved in 30% sucrose for 12 h, and then embedded in Tissue Tek OCT compound (Sakura, Tokyo, Japan). Cryostat coronal sections of 14-μm thickness were prepared for immunohistochemistry. For immunostaining, sections were incubated with primary antibody, anti-NeuN antibody, and then incubated in secondary antibody, FITC-conjugated anti-rabbit IgG. Counterstaining was done with DAPI. In immohistochemistry, observations were made with a confocal immunofluorescence microscope (FV300, Olympus, Tokyo, Japan).
Wistar rats (Clea, Tokyo, Japan) were used in all experiments and housed in a temperature controlled room on a 12-h day/night cycle with free access to food and water. All animal experimental procedures were approved by the Institutional Animal Use Committee of Yokohama City University (ID 153, 1 April 2015) and were in accordance with National Institutes of Health guidelines for care and use of laboratory animals.

[4] = system: skin-derived precursors (SKPs); assay: Whole-cell patch-clamp electrophysiology; assay type: cell-based, rat (neonate Wistar); conditions: five days after peptide addition at 3 μM, holding potential −80 mV, steps of 20 mV from −100 to 100 mV, VHL(157–168) vs VHL(157–171) p < 0.01
Procedure: as §1, §2
To record fast sodium and delayed rectifier potassium currents, we prepared extracellular and intracellular solutions as described previously. […] For recordings and data analysis we used CEZ-2300 (Nihon Kohden, Tokyo, Japan) and pCLAMP 6.0 software (Axon Instruments, Burlingame, CA, USA). Linear components of leak and capacitive currents were reduced by analogue circuitry and then canceled by the P/N method. Signals were sampled every 20 μs, and currents were filtered at 5 kHz. Data were additionally processed with Origin 5.0 (Microcal, Northhampton, MA, USA).

JAK2 = assay: Western blotting of JAK2 before and after peptide treatment; assay type: cell-based, rat; conditions: Western blot, Figure 5B, p < 0.01
STAT3 = assay: Western blotting of STAT3 before and after peptide treatment; assay type: cell-based, rat; conditions: Western blot, Figure 5B, p < 0.01

T1 sequence (Q15369 17-112): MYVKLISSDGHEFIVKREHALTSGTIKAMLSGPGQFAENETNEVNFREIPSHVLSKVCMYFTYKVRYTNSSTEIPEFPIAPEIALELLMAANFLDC
T1 sequence (Q15370 whole entry partner): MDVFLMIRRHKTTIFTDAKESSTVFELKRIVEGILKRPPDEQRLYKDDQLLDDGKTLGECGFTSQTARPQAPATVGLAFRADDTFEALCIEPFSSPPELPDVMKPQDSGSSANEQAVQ

Row | Sequence | ΔS (elongin BC; 25 °C, 20 mM HEPES-NaOH (pH 8.0), 150 mM NaCl, mean ± S.D. of two independent replicates) | Neurite Outgrowth Activity [1] | Morphological change ([1]; phase-contrast microscopy, Figure 1E) | Percentage of NFH-positive cells [2] | NFH protein amount / band [3] | Positive rates of NeuN (rat brain) | Voltage-gated outward K+ and inward Na+ currents [4] | JAK2 degradation (JAK2) | STAT3 degradation (STAT3) | Elongin BC binding affinity (elongin BC; two residues deleted from the N-terminus, p < 0.0001)
1 | TLKERCLQVVRS [VHL157–168, VHL peptide without TAT, for ITC, synthesized by CS Bio Co] | −8.54 ± 0.74 cal/mol/deg |  |  |  |  |  |  |  |  | 
2 | YARAAARQARA [TAT, modified TAT protein transduction domain peptide, reference compound] |  | scarcely did | no morphological change | 6.9 ± 1.5% | a faint band | 3.2 ± 0.8% | no current was elicited | Bands for JAK2 and STAT3 were found for pre-treated cells or TAT-treated cells more than post-treated cells | Bands for JAK2 and STAT3 were found for pre-treated cells or TAT-treated cells more than post-treated cells | 
3 | YARAAARQARAKERCLQVVRS [VHL(159–171), pVHL fragment conjugated with PTD] |  | scarcely did |  |  |  |  |  |  |  | complete loss of elongin BC binding affinity
4 | YARAAARQARATLKERCLQVVRS [VHL(157–168), BC-box motif plus two amino acids, conjugated with PTD] |  | significantly weaker neurite outgrowth activity than VHL(157–171) |  | 10.1 ± 2.2% | a less distinct band for NFH | 9.2 ± 1.8% | both significantly smaller outward potassium and inward Na^+ currents |  |  | 
